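These data come from cells grown in 96-well plates and exposed to compound for 48 hours at five concentrations. GI50 is the concentration that inhibits growth by half.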 Calls of active or inactive are those of the source. Rule as the data show it: active = GI50 up to about 1.1 µM and inactive = higher.
Tests used:
Assay in all cases: NCI tumour cell line growth inhibition, 48 h
NCI-H460 = test system: NCI-H460
Malme-3M = test system: Malme-3M
NCI-H23 = test system: NCI-H23
EKVX = test system: EKVX
TK-10 = test system: TK-10
K562 = test system: K562
CCRF-CEM = test system: CCRF-CEM
SF-539 = test system: SF-539
A549 = test system: A549
CAKI-1 = test system: CAKI-1
OVCAR-3 = test system: OVCAR-3
HCT-116 = test system: HCT-116
ACHN = test system: ACHN
HCT-15 = test system: HCT-15
HCC 2998 = test system: HCC 2998
HOP-92 = test system: HOP-92
SF-268 = test system: SF-268
A498 = test system: A498
SK-MEL-5 = test system: SK-MEL-5
COLO 205 = test system: COLO 205

| SMILES | GI50 (NCI-H460) | GI50 (Malme-3M) | GI50 (NCI-H23) | GI50 (EKVX) | GI50 (TK-10) | GI50 (K562) | GI50 (CCRF-CEM) | GI50 (SF-539) | GI50 (A549) | GI50 (CAKI-1) | GI50 (OVCAR-3) | GI50 (HCT-116) | GI50 (ACHN) | GI50 (HCT-15) [µM] | GI50 (HCC 2998) | GI50 (HOP-92) | GI50 (SF-268) | GI50 (A498) | GI50 (SK-MEL-5) | GI50 (COLO 205) |
| --- | --- | --- | --- | --- | --- | --- | --- | --- | --- | --- | --- | --- | --- | --- | --- | --- | --- | --- | --- | --- |
| N#Cc1c(Cl)nc2ccccc2c1N=[N+]=[N-] | 5.19 µM (inactive) | 2.18 µM (inactive) | 2.52 µM (inactive) | 2.25 µM (inactive) | 4.82 µM (inactive) | 0.705 µM (active) | 1.41 µM (inactive) | 2.15 µM (inactive) | 16.6 µM (inactive) | 1.68 µM (inactive) | 1.78 µM (inactive) | 1.66 µM (inactive) | 2.11 µM (inactive) | 2.02 | 6.12 µM (inactive) | 1.7 µM (inactive) | 3.24 µM (inactive) | 21.7 µM (inactive) | 14.2 µM (inactive) | 1.88 µM (inactive) |
| O=c1[nH]c(-c2ccccc2)nc2c1sc1nc3ccccc3n12 | > 100 µM (inactive) | > 100 µM (inactive) | > 100 µM (inactive) | > 100 µM (inactive) | > 100 µM (inactive) | > 100 µM (inactive) | > 100 µM (inactive) | > 100 µM (inactive) | > 100 µM (inactive) | > 100 µM (inactive) | > 100 µM (inactive) | > 100 µM (inactive) | 61.4 µM (inactive) | > 100 | > 100 µM (inactive) | > 100 µM (inactive) | 78.2 µM (inactive) | > 100 µM (inactive) | > 100 µM (inactive) | > 100 µM (inactive) |
| NS(=O)(=O)c1ccc(NC(=O)Nc2cccc3ccccc23)cc1 | 40.8 µM (inactive) | 35.7 µM (inactive) | 34.4 µM (inactive) | 28.4 µM (inactive) | 31 µM (inactive) | > 100 µM (inactive) | > 100 µM (inactive) | 23.8 µM (inactive) | 40.7 µM (inactive) | > 100 µM (inactive) | 46.9 µM (inactive) | 39.8 µM (inactive) | 33.2 µM (inactive) | 91.4 | 27.6 µM (inactive) | 35.6 µM (inactive) | 19.9 µM (inactive) | 22.5 µM (inactive) | > 100 µM (inactive) | 86.9 µM (inactive) |
| CCCCCCCCCCCCCC/C(C(=O)OC)=C(/O)C(=O)OCC | 37.8 µM (inactive) | > 100 µM (inactive) | > 100 µM (inactive) | 37.2 µM (inactive) | 47.3 µM (inactive) | 27 µM (inactive) | 42.5 µM (inactive) | > 100 µM (inactive) | 26.4 µM (inactive) | 31.4 µM (inactive) | > 100 µM (inactive) | 47.6 µM (inactive) | 28.9 µM (inactive) | 19.7 | 19.9 µM (inactive) | 25.5 µM (inactive) | 25.8 µM (inactive) | 33.2 µM (inactive) | > 100 µM (inactive) | 90.8 µM (inactive) |
| CC(C)c1cccc(=O)c(O)c1 [HINOKITIOL] | 6.98 µM (inactive) | 12.6 µM (inactive) | 8.09 µM (inactive) | 17.3 µM (inactive) | 58.1 µM (inactive) | 6.38 µM (inactive) | 2.79 µM (inactive) | 5.31 µM (inactive) | 9.35 µM (inactive) | 16.1 µM (inactive) | 4.05 µM (inactive) | 3.91 µM (inactive) | 3.33 µM (inactive) | 5.14 | 9.23 µM (inactive) | 15.9 µM (inactive) | 6.37 µM (inactive) | 44.1 µM (inactive) | 24.5 µM (inactive) | 4.24 µM (inactive) |
| N[C@H]1CCCC[C@@H]1N1C(=O)c2ccccc2C1(O)c1ccc(Cl)cc1 (stereo not given in full) | 11.2 µM (inactive) | 14 µM (inactive) | 14.9 µM (inactive) | 15.3 µM (inactive) | 12.9 µM (inactive) | 3.19 µM (inactive) | 2.94 µM (inactive) | 10.4 µM (inactive) | 12.2 µM (inactive) | 4.4 µM (inactive) | 8.73 µM (inactive) | 9.79 µM (inactive) | 13.7 µM (inactive) | 13.4 | 1.86 µM (inactive) | 10.3 µM (inactive) | 12.4 µM (inactive) | 13.7 µM (inactive) | 10.5 µM (inactive) | 3.41 µM (inactive) |
| CCCNC1=C2CC(C)CC(OC)[C@@H](O)[C@H](C)/C=C(\C)C(OC(N)=O)C(OC)/C=C\C=C(/C)C(=O)NC(=CC1=O)C2=O (stereo not given in full) | 0.0685 µM (active) | 0.0612 µM (active) | 0.0847 µM (active) | 3.36 µM (inactive) | 0.201 µM (active) | 0.141 µM (active) | 0.273 µM (active) | 0.698 µM (active) | 0.0847 µM (active) | 11.5 µM (inactive) | 1.65 µM (inactive) | 0.231 µM (active) | 0.502 µM (active) | 0.321 | 0.264 µM (active) | 0.124 µM (active) | 0.524 µM (active) | 0.944 µM (active) | 0.0637 µM (active) | 0.0319 µM (active) |
| Cc1c(C)n(-c2ccccc2)c2nc([S+](C)[O-])nc([S+](C)[O-])c12 (stereo not given) | 18.8 µM (inactive) | 1.98 µM (inactive) | 13.9 µM (inactive) | 6.92 µM (inactive) | 1.52 µM (inactive) | 2.09 µM (inactive) | 1.55 µM (inactive) | 3.85 µM (inactive) | 16.6 µM (inactive) | 1.34 µM (inactive) | 2.61 µM (inactive) | 2.14 µM (inactive) | 5.83 µM (inactive) | 5 | 15.2 µM (inactive) | 1.96 µM (inactive) | 7.14 µM (inactive) | 13.1 µM (inactive) | 2.35 µM (inactive) | 1.75 µM (inactive) |
| O=C1C2=C(CC3C(C2)C3(Br)Br)C(=O)C2=C1CC1C(C2)C1(Br)Br (stereo not given) | > 100 µM (inactive) | > 100 µM (inactive) | > 100 µM (inactive) | > 100 µM (inactive) | > 100 µM (inactive) | > 100 µM (inactive) | 61.9 µM (inactive) | > 100 µM (inactive) | > 100 µM (inactive) | > 100 µM (inactive) | > 100 µM (inactive) | > 100 µM (inactive) | > 100 µM (inactive) | > 100 | > 100 µM (inactive) | > 100 µM (inactive) | > 100 µM (inactive) | > 100 µM (inactive) | > 100 µM (inactive) | > 100 µM (inactive) |
| CC1=C(c2cc(C(=O)Nc3ccc(Cl)cc3)nc(S)n2)Sc2ccccc2N1 | > 100 µM (inactive) | > 100 µM (inactive) | > 100 µM (inactive) | > 100 µM (inactive) | > 100 µM (inactive) | > 100 µM (inactive) | > 100 µM (inactive) | > 100 µM (inactive) | > 100 µM (inactive) | > 100 µM (inactive) | > 100 µM (inactive) | > 100 µM (inactive) | > 100 µM (inactive) | > 100 | > 100 µM (inactive) | > 100 µM (inactive) | > 100 µM (inactive) | > 100 µM (inactive) | > 100 µM (inactive) | > 100 µM (inactive) |
| C=C1[C@H](OCC(C)C)[C@@H](OC(=O)C(C)CC)[C@@H](O)C(C)(C)/C=C/[C@H](C)C(=O)[C@@]2(O)C[C@H](C)[C@H](O)[C@@H]2[C@H]1OC(=O)C(C)CC (stereo not given in full) | 0.463 µM (active) | 6.62 µM (inactive) | 5.2 µM (inactive) | 8.83 µM (inactive) | 4 µM (inactive) | 0.991 µM (active) | 0.564 µM (active) | 3.05 µM (inactive) | 1.38 µM (inactive) | 3.32 µM (inactive) | 4.94 µM (inactive) | 4.88 µM (inactive) | 3.02 µM (inactive) | 7.82 | 2.84 µM (inactive) | 1.79 µM (inactive) | 4.78 µM (inactive) | 3.28 µM (inactive) | 2.23 µM (inactive) | 0.904 µM (active) |
| COc1ccc(-c2cc(-c3ccc(Nc4ccnc5cc(C(F)(F)F)ccc45)cc3)[nH]c(=O)c2C#N)cc1 | > 100 µM (inactive) | > 100 µM (inactive) | > 38.4 µM (inactive) | 98.9 µM (inactive) | > 43.6 µM (inactive) | 33.8 µM (inactive) | > 24 µM (inactive) | 21 µM (inactive) | > 100 µM (inactive) | > 100 µM (inactive) | > 100 µM (inactive) | 11.4 µM (inactive) | > 42.1 µM (inactive) | > 100 | > 100 µM (inactive) | 49.7 µM (inactive) | > 41.8 µM (inactive) | > 40 µM (inactive) | 99.8 µM (inactive) | > 39.4 µM (inactive) |
| CC(N)C(C)c1ccccc1 (stereo not given) | > 100 µM (inactive) | > 100 µM (inactive) | > 100 µM (inactive) | > 100 µM (inactive) | > 100 µM (inactive) | > 100 µM (inactive) | > 100 µM (inactive) | > 100 µM (inactive) | > 100 µM (inactive) | > 100 µM (inactive) | > 100 µM (inactive) | > 100 µM (inactive) | > 100 µM (inactive) | > 100 | > 100 µM (inactive) | > 100 µM (inactive) | > 100 µM (inactive) | > 100 µM (inactive) | > 100 µM (inactive) | > 100 µM (inactive) |
| COC(=O)[C@H](Cc1c[nH]c2ccccc12)NC(=O)c1ccc(CNC(=O)/C(C)=C/c2ccccc2)cc1 | 27.9 µM (inactive) | 13 µM (inactive) | 25.7 µM (inactive) | 57.3 µM (inactive) | 29.6 µM (inactive) | > 100 µM (inactive) | 41 µM (inactive) | > 100 µM (inactive) | 75.7 µM (inactive) | > 100 µM (inactive) | 28.6 µM (inactive) | 71.4 µM (inactive) | 52.5 µM (inactive) | 48.1 | 15.6 µM (inactive) | 16 µM (inactive) | 97.5 µM (inactive) | 22.6 µM (inactive) | 17.4 µM (inactive) | 22.8 µM (inactive) |
